Test results: patent US4495197A, “N-Carboxyl-thienamycin esters and analogs thereof as anti-inflammatory agents” (Merck & Co., Inc., priority 1982, dated 1985)
Read-outs that look alike come from different tables or passages of the source.

Target: T1, Human Polymorphonuclear Leukocyte Elastase (Homo sapiens, UniProt P08246)
T1 construct: Crude extract of human polymorphonuclear leukocytes (PMN) containing elastase activity; from tissue; host or cells: human polymorphonuclear leukocytes (crude extract)
T1 sequence (P08246 30-247 limits assumed): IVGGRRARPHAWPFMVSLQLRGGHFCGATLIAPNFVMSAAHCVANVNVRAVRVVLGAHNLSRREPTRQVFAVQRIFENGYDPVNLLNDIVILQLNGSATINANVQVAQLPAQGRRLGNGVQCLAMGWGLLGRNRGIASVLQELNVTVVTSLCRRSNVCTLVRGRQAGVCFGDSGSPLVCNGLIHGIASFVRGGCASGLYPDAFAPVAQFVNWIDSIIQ
Assay: Inhibition of human PMN elastase via hydrolysis of N-t-Boc-alanyl-alanyl-prolylalanine-p-nitroanilide
Format: biochemical
Conditions: pH 7.5
Procedure: Protocol-Enzyme Assays for the Inhibition of Human Polymorphonuclear Leukocyte Elastase Via Hydrolysis of N-t-Boc-alanyl-alanyl-prolylalanine-p-nitroanilide Reagents:
0.05M TES (N-tris[hydroxymethyl]methyl-2-amino-ethanesulfonic acid) Buffer, pH 7.5.
0.2 mM N-t-Boc-alanyl-alanyl-Prolyl-Alanine-p-nitroanilide (Boc-AAPAN).
To prepare substrate, the solid (m.w. 550) was first dissolved in 10.0 ml DMSO. Buffer at pH 7.5 was then added to a final volume of 100 ml.
Crude extract of human polymorphonuclear leukocytes (PMN) containing elastase activity.
Inhibitors (N-carboxyl-thienamycin eesters) to be tested dissolved in DMSO just before use.
To 1.0 ml of 0.2 mM Boc-AAPAN in a cuvette, 0.01-0.1 ml of DMSO with or without inhibitor was added. After mixing, a measurement was taken at 410 mμ to detect any spontaneous hydrolysis due to presence of test compound. 0.05 Milliliters of PMN extract was then added and the ΔOD/min at 410 mμ was measured and recorded. Beckman model 35 spectrophotometer was used.
Results were reported as % inhibition produced by test compound within 2 minutes as represented by the % decrease in ΔOD/min as compared to a control without inhibitor.
The elastase activity in the crude PMN extract may vary from one preparation to another. A control of each new batch is run, and the volume added in the assay procedure is adjusted according to activity.

SMILES | inhibition at 0.5 µg/mL | inhibition at 5 µg/mL | inhibition at 20 µg/mL | inhibition at 10 µg/mL | inhibition at 25 µg/mL | inhibition at 50 µg/mL | other results
CC(O)C1C(=O)N2C(C(=O)OCc3ccccc3)=C(SCCNC(=O)OCc3ccccc3)CC12 (centres unmarked) [" benzyl benzyl H H] | – | – | – | – | – | – | inhibition at 5 µg/mL (conc. 5 μg/ml, measured within 2 minutes, crude PMN extract, Boc-AAPAN substrate, read-out: % Inhibition): 33%; inhibition at 20 µg/mL (conc. 20 μg/ml, measured within 2 minutes, crude PMN extract, Boc-AAPAN substrate, read-out: % Inhibition): 69%; inhibition at 50 µg/mL (conc. 50 μg/ml, measured within 2 minutes, crude PMN extract, Boc-AAPAN substrate, read-out: % Inhibition): 86%
CC(O)C1C(=O)N2C(C(=O)OCc3ccc([N+](=O)[O-])cc3)=C(SCC(C)(C)NC(=O)OCc3ccc([N+](=O)[O-])cc3)CC12 (centres unmarked) | 45% | 89% | 100% | – | – | – | –
CC(CSC1=C(C(=O)OCc2ccc([N+](=O)[O-])cc2)N2C(=O)C(C(C)O)C2C1)NC(=O)OCc1ccc([N+](=O)[O-])cc1 (centres unmarked) | 42% | – | – | 94% | 100% | – | inhibition at 1 µg/mL: 55%; inhibition at 2 µg/mL: 77%
CC(OC(=O)OCc1ccc([N+](=O)[O-])cc1)C1C(=O)N2C(C(=O)OCc3ccc([N+](=O)[O-])cc3)=C(SCCNC(=O)OCc3ccc([N+](=O)[O-])cc3)CC12 (centres unmarked) | – | – | – | 29% | 45% | 55% | –
O=C(NCCSC1=C(C(=O)OCc2ccc([N+](=O)[O-])cc2)N2C(=O)CC2C1)OCc1ccc([N+](=O)[O-])cc1 (centres unmarked) [H PNB PNB H H] | – | 18% | 50% | – | – | 63% | –
